Assays:
bedstraw = test: Test B pre/postemergence bedstraw; type: in vivo, Galium aparine
Summary of the method: (§1)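 Test chemicals in a non-phytotoxic solvent mixture with surfactant were sprayed preemergence onto planted seeds and postemergence onto plants 2 to 18 cm tall (1- to 4-leaf stage). After twelve to sixteen days in a greenhouse, injury was visually rated against untreated controls from 0 (no effect) to 10 (complete control).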

surinam grass = test: Test B pre/postemergence surinam grass; type: in vivo, Brachiaria decumbens
Summary of the method: as §1

wild oat = test: Test B pre/postemergence wild oat; type: in vivo, Avena fatua
Summary of the method: as §1

giant foxtail = test: Test B pre/postemergence giant foxtail; type: in vivo, Setaria faberii
Summary of the method: as §1

sugar beet = test: Test B pre/postemergence sugar beet; type: in vivo, Beta vulgaris
Summary of the method: as §1

crabgrass = test: Test B pre/postemergence crabgrass; type: in vivo, Digitaria sanguinalis
Summary of the method: as §1

corn = test: Test B pre/postemergence corn; type: in vivo, Zea mays
Summary of the method: as §1

blackgrass = test: Test B pre/postemergence blackgrass; type: in vivo, Alopecurus myosuroides
Summary of the method: as §1

rape = test: Test B pre/postemergence rape; type: in vivo, Brassica napus
Summary of the method: as §1

bamyardgrass = test: Test B flood test barnyardgrass; type: in vivo, Echinochloa crus-galli
Summary of the method: (§2)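 Plants were grown to the 2-leaf stage before treatment with test chemical, then held in a greenhouse for twelve to sixteen days. Injury was visually rated against untreated controls on a 0–10 scale, where 0 is no effect and 10 is complete control.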

purple nutsedge = test: Test B pre/postemergence purple nutsedge; type: in vivo, Cyperus rotundus
Summary of the method: as §1

pigweed = test: Test B pre/postemergence pigweed; type: in vivo, Amaranthus retroflexus
Summary of the method: as §1

morningglory = test: Test B pre/postemergence morningglory; type: in vivo, Ipomoea hederacea
Summary of the method: as §1

rice = test: Test B flood test rice; type: in vivo, Oryza sativa
Summary of the method: as §2

cocklebur = test: Test B pre/postemergence cocklebur; type: in vivo, Xanthium strumarium
Summary of the method: as §1

wheat = test: Test B pre/postemergence wheat; type: in vivo, Triticum aestivum
Summary of the method: as §1

[1] = Preemergence, Rate 62 g/ha, scale of 0 to 10 where 0 is no effect and 10 is complete control
[2] = Preemergence, Rate 125 g/ha, 0 is no effect, 10 is complete control
[3] = Preemergence, Rate 250 g/ha, scale 0 to 10, 0 is no effect, 10 is complete control
[4] = Preemergence, Rate 500 g/ha, scale 0 to 10 (0 no effect, 10 complete control)
[5] = Rate 62 g/ha, Postemergence, scale of 0 to 10 where 0 is no effect and 10 is complete control
[6] = Rate 125 g/ha, Postemergence, scale 0 to 10
[7] = Rate 500 g/ha, Postemergence, scale 0 to 10
[8] = Rate 1000 g/ha, Preemergence, scale 0 to 10 (0 no effect, 10 complete control)
[9] = Rate 2000 g/ha, Preemergence, scale 0 to 10
[10] = Postemergence, Rate 1000 g/ha, scale 0 to 10 (0 no effect, 10 complete control)
[11] = Rate 2000 g/ha, Postemergence, scale 0 to 10
[12] = Rate 62 g/ha, headed Pre-emergence (flood test species), scale 0 to 10 (0 no effect, 10 complete control)
[13] = Rate 125 g/ha, Pre-emergence, flood test species, scale 0 to 10 where 0 is no effect and 10 is complete control
[14] = Rate 250 g/ha, Pre-emergence, flood-test species, scale 0 to 10, 0 is no effect, 10 is complete control
[15] = Rate 500 g/ha, headed Pre-emergence (flood test species), scale 0 to 10 (0 no effect, 10 complete control)
[16] = Rate 1000 g/ha, Pre-emergence (as headed), scale 0 to 10

## CCN(C(=O)n1oc(=O)n(N(C)c2ccccc2)c1=O)C1CCCCC1 [Compound 183]
bedstraw; [1]
  Bedstraw plant response rating: 0
bedstraw; [2]
  Bedstraw plant response rating (0 to 10 scale): 0
bedstraw; [3]
  Bedstraw plant response rating: 0
bedstraw; [4]
  Bedstraw plant response rating: 7
bedstraw; [5]
  Bedstraw plant response rating: 0
bedstraw; [6]
  Bedstraw plant response rating: 0
bedstraw; Rate 250 g/ha, Postemergence
  Plant response rating (0 to 10; 0 is no effect, 10 is complete control), Bedstraw: 7
bedstraw; [7]
  Bedstraw plant response rating: 3
bedstraw; [8]
  Plant response rating, Bedstraw: 7
bedstraw; [9]
  Bedstraw plant response rating: 10
Surinam grass; [10]
  B. signalgrass plant response rating: 0
Surinam grass; [1]
  B. signalgrass plant response rating: 0
Surinam grass; [2]
  B. signalgrass plant response rating (0 to 10 scale): 0
Surinam grass; [3]
  B. signalgrass plant response rating: 4
Surinam grass; [4]
  B. signalgrass plant response rating: 4
Surinam grass; [5]
  B. signalgrass plant response rating: 0
Surinam grass; Rate 125 g/ha, Postemergence, scale 0 (no effect) to 10 (complete control)
  B. signalgrass plant response rating: 0
Surinam grass; Rate 250 g/ha, Postemergence, scale 0 to 10, 0 is no effect, 10 is complete control
  Plant response rating, B. signalgrass: 0
Surinam grass; Rate 500 g/ha, Postemergence, scale 0 to 10, 0 no effect, 10 complete control
  B. signalgrass plant response rating: 0
Surinam grass; [8]
  Plant response rating, B. signalgrass: 0
Surinam grass; [11]
  B. signalgrass plant response rating: 0
Surinam grass; [9]
  B. signalgrass plant response rating: 2
Wild oat; [10]
  Wild oats plant response rating: 0
Wild oat; [1]
  Wild oats plant response rating: 0
Wild oat; [3]
  Wild oats plant response rating: 0
Wild oat; [4]
  Wild oats plant response rating: 0
Wild oat; [6]
  Wild oats plant response rating: 0
Wild oat; Rate 250 g/ha, Postemergence
  Plant response rating (0 to 10; 0 is no effect, 10 is complete control), Wild oats: 0
Wild oat; [7]
  Wild oats plant response rating: 0
Wild oat; [8]
  Plant response rating, Wild oats: 0
Wild oat; [11]
  Wild oats plant response rating: 0
Wild oat; [9]
  Wild oats plant response rating: 3
Giant foxtail; [10]
  Giant foxtail plant response rating: 0
Giant foxtail; [1]
  Giant foxtail plant response rating: 0
Giant foxtail; [2]
  Giant foxtail plant response rating (0 to 10 scale): 0
Giant foxtail; [3]
  Giant foxtail plant response rating: 0
Giant foxtail; [4]
  Giant foxtail plant response rating: 3
Giant foxtail; [5]
  Giant foxtail plant response rating: 0
Giant foxtail; [6]
  Giant foxtail plant response rating: 0
Giant foxtail; Rate 250 g/ha, Postemergence
  Plant response rating (0 to 10; 0 is no effect, 10 is complete control), Giant foxtail: 0
Giant foxtail; [7]
  Giant foxtail plant response rating: 0
Giant foxtail; [8]
  Plant response rating, Giant foxtail: 6
Giant foxtail; [11]
  Giant foxtail plant response rating: 0
Giant foxtail; [9]
  Giant foxtail plant response rating: 9
Sugar beet; [10]
  Sugarbeets plant response rating: 0
Sugar beet; [1]
  Sugarbeets plant response rating: 0
Sugar beet; [2]
  Sugarbeets plant response rating (0 to 10 scale): 0
Sugar beet; [3]
  Sugarbeets plant response rating: 0
Sugar beet; [4]
  Sugarbeets plant response rating: 0
Sugar beet; [5]
  Sugarbeets plant response rating: 0
Sugar beet; [6]
  Sugarbeets plant response rating: 0
Sugar beet; Rate 250 g/ha, Postemergence
  Plant response rating (0 to 10; 0 is no effect, 10 is complete control), Sugarbeets: 0
Sugar beet; [7]
  Sugarbeets plant response rating: 0
Sugar beet; [8]
  Plant response rating, Sugarbeets: 0
Sugar beet; [11]
  Sugarbeets plant response rating: 0
Sugar beet; [9]
  Sugarbeets plant response rating: 0
crabgrass; [10]
  Crabgrass plant response rating: 0
crabgrass; [1]
  Crabgrass plant response rating: 0
crabgrass; [2]
  Crabgrass plant response rating (0 to 10 scale): 0
crabgrass; [3]
  Crabgrass plant response rating: 0
crabgrass; [4]
  Crabgrass plant response rating: 3
crabgrass; [5]
  Crabgrass plant response rating: 0
crabgrass; [6]
  Crabgrass plant response rating: 0
crabgrass; Rate 250 g/ha, Postemergence
  Plant response rating (0 to 10; 0 is no effect, 10 is complete control), Crabgrass: 0
crabgrass; [7]
  Crabgrass plant response rating: 0
crabgrass; [8]
  Plant response rating, Crabgrass: 0
crabgrass; [11]
  Crabgrass plant response rating: 0
crabgrass; [9]
  Crabgrass plant response rating: 2
corn; [10]
  Corn plant response rating: 0
corn; [1]
  Corn plant response rating: 0
corn; [2]
  Corn plant response rating (0 to 10 scale): 0
corn; [3]
  Corn plant response rating: 0
corn; [4]
  Corn plant response rating: 0
corn; [5]
  Corn plant response rating: 0
corn; [6]
  Corn plant response rating: 0
corn; Rate 250 g/ha, Postemergence
  Plant response rating (0 to 10; 0 is no effect, 10 is complete control), Corn: 0
corn; [7]
  Corn plant response rating: 0
corn; [8]
  Plant response rating, Corn: 0
corn; [11]
  Corn plant response rating: 0
corn; [9]
  Corn plant response rating: 0
blackgrass; [10]
  Blackgrass plant response rating: 0
blackgrass; [1]
  Blackgrass plant response rating: 0
blackgrass; [2]
  Blackgrass plant response rating (0 to 10 scale): 0
blackgrass; [3]
  Blackgrass plant response rating: 0
blackgrass; [4]
  Blackgrass plant response rating: 0
blackgrass; [5]
  Blackgrass plant response rating: 0
blackgrass; [6]
  Blackgrass plant response rating: 0
blackgrass; Rate 250 g/ha, Postemergence
  Plant response rating (0 to 10; 0 is no effect, 10 is complete control), Blackgrass: 0
blackgrass; [7]
  Blackgrass plant response rating: 0
blackgrass; [8]
  Plant response rating, Blackgrass: 1
blackgrass; [11]
  Blackgrass plant response rating: 0
blackgrass; [9]
  Blackgrass plant response rating: 2
rape; [10]
  Rape plant response rating: 0
rape; [1]
  Rape plant response rating: 0
rape; [2]
  Rape plant response rating (0 to 10 scale): 0
rape; [3]
  Rape plant response rating: 0
rape; [4]
  Rape plant response rating: 0
rape; [5]
  Rape plant response rating: 0
rape; [6]
  Rape plant response rating: 0
rape; Rate 250 g/ha, Postemergence
  Plant response rating (0 to 10; 0 is no effect, 10 is complete control), Rape: 0
rape; [7]
  Rape plant response rating: 0
rape; [8]
  Plant response rating, Rape: 0
rape; [11]
  Rape plant response rating: 0
rape; [9]
  Rape plant response rating: 0
bamyardgrass; [12]
  Barnyardgrass plant response rating: 0
bamyardgrass; [13]
  Barnyardgrass plant response rating: 0
bamyardgrass; [14]
  Barnyardgrass plant response rating: 0
bamyardgrass; [15]
  Plant response rating, Barnyardgrass: 0
bamyardgrass; [16]
  Barnyardgrass plant response rating: 0
bamyardgrass; Rate 2000 g/ha, Pre-emergence (as headed), scale 0 to 10, 0 no effect, 10 complete control
  Barnyardgrass plant response rating: 0
Purple nutsedge; [10]
  Nutsedge plant response rating: 0
Purple nutsedge; [1]
  Nutsedge plant response rating: 0
Purple nutsedge; [2]
  Nutsedge plant response rating (0 to 10 scale): 0
Purple nutsedge; [3]
  Nutsedge plant response rating: 0
Purple nutsedge; [4]
  Nutsedge plant response rating: 0
Purple nutsedge; [5]
  Nutsedge plant response rating: 0
Purple nutsedge; [6]
  Nutsedge plant response rating: 0
Purple nutsedge; Rate 250 g/ha, Postemergence
  Plant response rating (0 to 10; 0 is no effect, 10 is complete control), Nutsedge: 0
Purple nutsedge; [7]
  Nutsedge plant response rating: 0
Purple nutsedge; [8]
  Plant response rating, Nutsedge: 0
Purple nutsedge; [11]
  Nutsedge plant response rating: 0
Purple nutsedge; [9]
  Nutsedge plant response rating: 0
pigweed; [10]
  Redroot pigweed plant response rating: 0
pigweed; [1]
  Redroot pigweed plant response rating: 0
pigweed; [2]
  Redroot pigweed plant response rating (0 to 10 scale): 0
pigweed; [3]
  Redroot pigweed plant response rating: 0
pigweed; [4]
  Redroot pigweed plant response rating: 0
pigweed; [5]
  Redroot pigweed plant response rating: 0
pigweed; [6]
  Redroot pigweed plant response rating: 0
pigweed; Rate 250 g/ha, Postemergence
  Plant response rating (0 to 10; 0 is no effect, 10 is complete control), Redroot pigweed: 0
pigweed; [7]
  Redroot pigweed plant response rating: 0
pigweed; [8]
  Plant response rating, Redroot pigweed: 0
pigweed; [11]
  Redroot pigweed plant response rating: 0
pigweed; [9]
  Redroot pigweed plant response rating: 0
morningglory; [10]
  Morningglory plant response rating: 4
morningglory; [1]
  Morningglory plant response rating: 0
morningglory; [2]
  Morningglory plant response rating (0 to 10 scale): 0
morningglory; [3]
  Morningglory plant response rating: 0
morningglory; [4]
  Morningglory plant response rating: 0
morningglory; [5]
  Morningglory plant response rating: 0
morningglory; [6]
  Morningglory plant response rating: 0
morningglory; Rate 250 g/ha, Postemergence
  Plant response rating (0 to 10; 0 is no effect, 10 is complete control), Morningglory: 1
morningglory; [7]
  Morningglory plant response rating: 2
morningglory; [8]
  Plant response rating, Morningglory: 0
morningglory; [11]
  Morningglory plant response rating: 5
morningglory; [9]
  Morningglory plant response rating: 0
rice; [12]
  Rice plant response rating: 0
rice; [13]
  Rice plant response rating: 0
rice; [14]
  Rice plant response rating: 0
rice; [15]
  Plant response rating, Rice: 0
rice; [16]
  Rice plant response rating: 0
rice; Rate 2000 g/ha, Pre-emergence (as headed), scale 0 to 10
  Rice plant response rating: 0
cocklebur; [10]
  Cocklebur plant response rating: 0
cocklebur; [1]
  Cocklebur plant response rating: 0
cocklebur; [2]
  Cocklebur plant response rating (0 to 10 scale): 0
cocklebur; [3]
  Cocklebur plant response rating: 0
cocklebur; [4]
  Cocklebur plant response rating: 0
cocklebur; [5]
  Cocklebur plant response rating: 0
cocklebur; [6]
  Cocklebur plant response rating: 0
cocklebur; Rate 250 g/ha, Postemergence
  Plant response rating (0 to 10; 0 is no effect, 10 is complete control), Cocklebur: 0
cocklebur; [7]
  Cocklebur plant response rating: 0
cocklebur; [8]
  Plant response rating, Cocklebur: 0
cocklebur; [11]
  Cocklebur plant response rating: 2
cocklebur; [9]
  Cocklebur plant response rating: 0
wheat; [10]
  Wheat plant response rating: 0
wheat; [1]
  Wheat plant response rating: 0
wheat; [3]
  Wheat plant response rating: 0
wheat; [4]
  Wheat plant response rating: 0
wheat; [6]
  Wheat plant response rating: 0
wheat; Rate 250 g/ha, Postemergence
  Plant response rating (0 to 10; 0 is no effect, 10 is complete control), Wheat: 0
wheat; [7]
  Wheat plant response rating: 0
wheat; [8]
  Plant response rating, Wheat: 0
wheat; [11]
  Wheat plant response rating: 0
wheat; [9]
  Wheat plant response rating: 0
